Columns and labels:
Test in all cases: relative viability (nuclei count vs DMSO), 5 days (fraction); higher = more cells survive
[1] = compound: C[C@@H](C(=O)N[C@@H](C1CCCCC1)C(=O)N2CCC[C@H]2C(=O)N[C@@H]3[C@@H](CC4=CC=CC=C34)OCC#CC#CCO[C@@H]5CC6=CC=CC=C6[C@@H]5NC(=O)[C@@H]7CCCN7C(=O)[C@H](C8CCCCC8)NC(=O)[C@H](C)NC)NC [AZD5582] + O=C(c1cc(Cc2n[nH]c(=O)c3ccccc23)ccc1F)N1CCN(C(=O)C2CC2)CC1 [Olaparib] (partner 8 µM)
How it was run: (§1)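 Relative viability equals treated-well nuclei counts divided by vehicle-well nuclei counts. Counts came from 4× images of lung cancer cell lines grown in 1536-well plates for 5 days after pin-tool dosing on the day after seeding. Dosing used one drug alone or a fixed anchor-drug dose plus five library-drug doses (not always all listed) in √10 steps, and values are medians of duplicate plates.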

[2] = compound: Cn1nnc2c(C(N)=O)ncn2c1=O [Temozolomide] + C[C@]1(O)C[C@@H](c2nc(-c3ccc4ccc(-c5ccccc5)nc4c3)c3c(N)nccn32)C1 [Linsitinib] (partner 1 µM)
How it was run: as §1

[3] = compound: Cn1nnc2c(C(N)=O)ncn2c1=O [Temozolomide] + Nc1ncn([C@H]2C[C@H](O)[C@@H](CO)O2)c(=O)n1 [Decitabine] (partner 2 µM)
How it was run: as §1

[4] = compound: C[C@@H](C(=O)N[C@@H](C1CCCCC1)C(=O)N2CCC[C@H]2C(=O)N[C@@H]3[C@@H](CC4=CC=CC=C34)OCC#CC#CCO[C@@H]5CC6=CC=CC=C6[C@@H]5NC(=O)[C@@H]7CCCN7C(=O)[C@H](C8CCCCC8)NC(=O)[C@H](C)NC)NC [AZD5582] + CCNC(=O)c1noc(-c2cc(C(C)C)c(O)cc2O)c1-c1ccc(CN2CCOCC2)cc1 [Luminespib] (partner 0.01 µM)
How it was run: as §1

| Cell Line | relative viability ([1]; first compound 0.001581 µM) | relative viability ([1]; first compound 0.005 µM) | relative viability ([1]; first compound 0.01581 µM) | relative viability ([1]; first compound 0.05 µM) | relative viability ([2]; first compound 0.2 µM) | relative viability ([2]; first compound 0.6325 µM) | relative viability ([2]; first compound 2 µM) | relative viability ([2]; first compound 6.325 µM) | relative viability ([2]; first compound 20 µM) | relative viability ([3]; first compound 0.2 µM) | relative viability ([3]; first compound 0.6325 µM) | relative viability ([3]; first compound 2 µM) | relative viability ([3]; first compound 6.325 µM) | relative viability ([3]; first compound 20 µM) | relative viability ([4]; first compound 0.001581 µM) | relative viability ([4]; first compound 0.005 µM) | relative viability ([4]; first compound 0.01581 µM) | relative viability ([4]; first compound 0.05 µM) |
| --- | --- | --- | --- | --- | --- | --- | --- | --- | --- | --- | --- | --- | --- | --- | --- | --- | --- | --- |
| HCC-44 | 0.942 | 0.958 | 0.949 | 0.903 | 0.668 | 0.741 | 0.681 | 0.718 | 0.562 | 1.04 | 0.991 | 0.963 | 0.951 | 0.966 | 0.921 | 1.12 | 0.96 | 1.2 |
| HCC-78 | 0.869 | 0.859 | 0.598 | 0.791 | 0.387 | 0.618 | 0.668 | 0.67 | 0.529 | 0.743 | 0.679 | 0.763 | – | 0.614 | – | – | – | – |
| HCC-366 | 0.292 | 0.428 | 0.353 | 0.44 | 0.607 | 0.708 | 0.72 | 0.709 | 0.762 | 0.297 | 0.386 | 0.384 | 0.304 | 0.337 | – | – | – | – |
| HCC-827 | 0.662 | 0.807 | 0.626 | 0.68 | 0.998 | 0.959 | 0.954 | 0.968 | 0.158 | 0.228 | 0.357 | 0.339 | 0.34 | 0.169 | 0.61 | 0.755 | 0.664 | 0.743 |
| HOP-62 | 0.234 | 0.287 | 0.252 | 0.232 | 1.05 | 1.01 | 0.895 | 0.832 | 0.866 | 0.214 | 0.247 | 0.226 | 0.19 | 0.188 | 0.837 | 0.85 | 0.987 | 1.07 |
| IA-LM | 0.708 | 0.586 | 0.649 | 0.582 | 0.941 | 0.518 | 0.664 | 0.548 | 0.909 | – | – | – | – | – | – | – | – | – |
| LC-2-ad | 0.68 | 0.715 | 0.659 | 0.805 | 0.795 | 0.823 | 0.808 | 0.751 | 0.807 | 0.795 | 0.766 | 0.775 | 0.874 | 0.665 | 1.1 | 1.03 | 0.942 | 0.901 |
| LCLC-97TM1 | 0.38 | 0.319 | 0.366 | 0.272 | 0.191 | 0.19 | 0.173 | 0.176 | 0.203 | 0.232 | 0.245 | 0.223 | 0.216 | 0.253 | 0.766 | 0.794 | 0.785 | 0.857 |
| LCLC-103H | 0.806 | 0.836 | 0.714 | 0.862 | 1.03 | 1.05 | 1.23 | 1.09 | 1.01 | 0.779 | 0.757 | 0.743 | 0.764 | 0.599 | 0.877 | 0.943 | 0.896 | 0.886 |
| NCI-H522 | 0.554 | 0.628 | 0.641 | 0.674 | – | – | – | – | – | 0.591 | 0.623 | 0.747 | 0.608 | 0.59 | 0.953 | 1.03 | 1.2 | 1.29 |
| NCI-H1299 | 0.943 | 0.965 | 0.963 | 0.931 | 0.994 | 0.961 | 1.16 | 1 | 1.02 | – | – | – | – | – | – | – | – | – |
| NCI-H1563 | – | – | – | – | 1.14 | 1.26 | 1.39 | 1.23 | 1.22 | – | – | – | – | – | 0.509 | 0.551 | 0.52 | 0.52 |
| NCI-H1623 | – | – | – | – | – | – | – | – | – | – | – | – | – | – | 0.405 | 0.551 | 0.572 | 0.543 |
| NCI-H1648 | 0.65 | 0.735 | – | 0.672 | – | – | – | – | – | – | 0.469 | 0.459 | 0.336 | 0.37 | – | – | – | – |
| NCI-H1650 | 0.758 | 0.668 | 0.813 | 0.834 | – | – | – | – | – | 0.45 | 0.422 | 0.515 | 0.457 | 0.532 | 0.2 | 0.21 | 0.189 | 0.211 |
| NCI-H2170 | 0.561 | 0.543 | 0.628 | 0.688 | – | – | – | – | – | – | 0.511 | 0.45 | 0.383 | 0.268 | 0.798 | 0.606 | 0.626 | 0.786 |
| NCI-H2228 | 0.629 | 0.61 | 0.618 | 0.333 | 0.794 | 0.705 | 0.693 | 0.636 | 0.822 | – | – | – | – | – | 0.136 | 0.205 | 0.144 | 0.15 |
| NCI-H2342 | 0.325 | 0.361 | 0.463 | 0.438 | – | – | – | – | – | 0.737 | 0.771 | 0.666 | 0.676 | 0.803 | 0.784 | 0.887 | 0.737 | 0.755 |
| SW 900 | 0.667 | 0.656 | 0.79 | 0.495 | – | – | – | – | – | 0.428 | 0.427 | 0.453 | 0.511 | 0.427 | 0.168 | 0.169 | 0.208 | 0.188 |
